Laboratory results taken from PMC4168790 (ACS Chemical Biology, 2014).

How the values were obtained:
HsPPT = conditions: cited from earlier work
PptT [1] = target: T1, PptT (Mycobacterium tuberculosis, UniProt O33336); assay type: biochemical, M. tuberculosis; conditions: MAS as target carrier protein (4 µM MAS, 2 µM rhodamine CoA), 250 nM PptT
T1 sequence (O33336 1-227): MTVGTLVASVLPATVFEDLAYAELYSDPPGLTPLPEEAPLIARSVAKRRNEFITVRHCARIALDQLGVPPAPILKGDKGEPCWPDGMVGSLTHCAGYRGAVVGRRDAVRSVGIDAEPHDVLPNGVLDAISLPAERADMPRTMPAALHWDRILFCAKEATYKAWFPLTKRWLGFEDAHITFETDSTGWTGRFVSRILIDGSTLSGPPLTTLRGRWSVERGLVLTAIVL

Sfp = target: T2, Sfp (Bacillus subtilis, UniProt P39135); test: Isothermal titration calorimetry of CoA analogs binding to Sfp; design: species or system B. subtilis
T2 sequence (P39135 1-224): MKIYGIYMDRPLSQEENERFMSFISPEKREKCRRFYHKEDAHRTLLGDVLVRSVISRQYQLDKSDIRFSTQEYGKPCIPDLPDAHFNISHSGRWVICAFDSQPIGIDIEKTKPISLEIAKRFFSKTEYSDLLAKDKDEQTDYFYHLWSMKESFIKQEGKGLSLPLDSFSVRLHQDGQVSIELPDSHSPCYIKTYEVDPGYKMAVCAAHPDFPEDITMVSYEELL

PptT [2] = target: T1, PptT; test: biochemical; assay type: binding, M. tuberculosis

## NC(N)=Nc1ccc2[nH]c3c(c2c1)C[C@@]1(O)[C@H]2Cc4ccc(O)c5c4[C@@]1(CCN2CC1CC1)[C@H]3O5.O=C(O)C(F)(F)F.O=C(O)C(F)(F)F [guanidinyl-naltrindole 2CF3COOH, guanidinyl-naltrindole]
HsPPT
  inhibitory activity against HsPPT: no inhibitory activity

## O=C1c2c(O)ccc(O)c2C(=O)c2c(NCCNCCO)ccc(NCCNCCO)c21 [mitoxantrone 2HCl, mitoxantrone]
PptT [1]
  IC50, PptT, MAS: inactive

## Clc1ccc(C(c2ccc(Cl)cc2)n2cc[n+](CC(OCc3ccc(Cl)cc3Cl)c3ccc(Cl)cc3Cl)c2)cc1 (stereo not shown) [calmidazolium Cl, calmidazolium chloride]
HsPPT
  inhibitory activity against HsPPT: no inhibitory activity

## CC(C)(COP(=O)(O)OP(=O)(O)OC[C@H]1O[C@@H](n2cnc3c(N)ncnc32)[C@H](O)[C@@H]1OP(=O)(O)O)[C@@H](O)C(=O)NCCC(=O)NCCS [CoA, coenzyme A]
Sfp
  Kd: 3.4 ± 0.2 µM
Sfp; ITC, 16°C
  enthalpy of binding (ΔH), Sfp: −12.5 ± 0.15 kcal mol^–1
  entropy of binding (TΔS), Sfp: −5.07 ± 0.38 kcal mol^–1
PptT [2]
  Kd: 36 ± 13 nM
PptT [2]; ITC, 16°C
  enthalpy of binding (ΔH), PptT: −5.78 ± 0.08 kcal mol^–1
  entropy of binding (TΔS), PptT: 4.14 ± 0.16 kcal mol^–1

## CN=c1nc(-c2ccccc2)n(-c2ccccc2)s1 [SCH-202676]
HsPPT
  inhibitory activity against HsPPT: no inhibitory activity

## C[n+]1cc2c3c(ccc2c2ccc4cc5c(cc4c21)OCO5)OCO3 [sanguinarine Cl, sanguinarine chloride]
HsPPT
  inhibitory activity against HsPPT: no inhibitory activity

## N=C1Sc2ccccc2C2=NCCCN12 [PD 404, 182]
HsPPT
  inhibitory activity against HsPPT: no inhibitory activity

## CN[C@@H](C)[C@H](O)c1ccccc1 [(−)-ephedrine hemisulfate, (−)-ephedrine]
PptT [1]
  IC50, PptT, MAS: inactive
